Test results: patent publication US12535460B2, “Small molecule detection in normal ionic strength buffers” (ARIZONA BOARD OF REGENTS ON BEHALF OF ARIZONA STATE …, priority 2020, dated 2026)

How the values were obtained:
[1] = system: empty virion K082 (no GPCR displayed); assay: CSOD negative control with empty virion K082 modified fiber; assay type: binding, HSV-1
Description: Virions are functionalized to fiber surface via epoxy coupling, and the binding of respective small molecule antagonists B2 antagonist and Tocrifluor are studied in 1×PBS. First, the virions modified fiber tip was dipped into one well filled with 1×PBS buffer to establish a baseline. Subsequently, the fiber tip was switched from the buffer well to a sample well containing ligands to measure the binding or association process. At last, the fiber tip was switched back to the buffer well for dissociation studies. […] Solid lines are global fitting of the data with a first-order kinetic model. […] For both binding pairs, when no ligand is introduced, the baseline level is within the noise level, showing that the oscillation amplitude change was caused by the specific binding between the ligands and their corresponding receptors.

[2] = target: T1, GPR55 (Homo sapiens, UniProt Q9Y2T6); assay: CSOD binding kinetics of a small molecule ligand to virion-displayed GPR55; design: made in house; host or cells: recombinant HSV-1 virions (VirD), made by collaborators at Johns Hopkins University; settings: 1×PBS, global fitting with first-order kinetics
Description: An inverted microscope (Olympus IX-70 with 40× objective) with a CCD camera (Pike F-032, Allied Vision) was used for recording 14-bit grayscale image sequences at a frame rate of 106.5. A customized plate with 2 PDMS wells shown in FIGS. 1A and 1B was mounted on a motorized microscope stage (MAC 6000 modular automation controller, Ludl Electronic Products LTD.). Two steel electrodes (1 cm×3 cm) were placed 1 cm apart inside the well, then blocked with agarose electrophoresis gel. A green LED (505 nm, 400 mW, Thorlabs M505L3) light was coupled into the fiber via a focusing lens. Fiber is dipped into analyte solution between the electrophoresis gels. To control the fiber and move the fiber between the 2 wells, the fiber was clamped to a motorized arm (A-LSQ075B, Zaber). A sinusoidal potential was applied with a function generator (33521A, Agilent). A USB data acquisition card (USB-6229, National Instruments) was used to record voltage and current.
The tip (about 1 cm) of an optical fiber thread (about 20 cm) was first soaked in acetone for 1 minute and then rinsed with DI water and dried. The polymer coating layer on the optical fiber was then stripped off with an optical fiber stripper. The bare fiber was etched by soaking it in 47% hydrofluoric acid for 29 minutes and 15 seconds for a diameter of approximately 15 μm. The etched fiber was later rinsed with DI water to wash off the hydrofluoric acid and then blown dry with nitrogen. The tip was cut to about 9 mm long. Before functionalization, the optical fiber was cleaned with oxygen plasma for 3 minutes.
The etched fiber was soaked in (3-glycidyloxypropyl)trimethoxysilane (epoxy) solution (2.5% volume percentage of epoxy in isopropanol) for 1 hour for surface functionalization. The fiber was then rinsed with PBS buffer. […]
By fitting the kinetic curves at different concentrations globally with first-order kinetics, the association rate constant (ka), dissociation rate constant (kd) as well as equilibrium constant (KD) for both binding pairs are calculated.
Target sequence in this assay (Q9Y2T6 whole entry): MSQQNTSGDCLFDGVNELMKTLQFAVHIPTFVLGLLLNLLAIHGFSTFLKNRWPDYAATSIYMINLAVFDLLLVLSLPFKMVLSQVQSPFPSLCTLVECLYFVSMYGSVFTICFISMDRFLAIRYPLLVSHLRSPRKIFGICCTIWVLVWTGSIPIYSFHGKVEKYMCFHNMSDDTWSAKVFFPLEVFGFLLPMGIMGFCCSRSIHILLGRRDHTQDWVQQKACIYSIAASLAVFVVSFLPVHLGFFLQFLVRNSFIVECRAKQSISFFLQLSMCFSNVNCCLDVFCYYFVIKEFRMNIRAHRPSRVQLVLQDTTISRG

[3] = target: T1, GPR55; assay: VirD oscillator method, Tocrifluor/GPR55 pair in diluted buffer; assay type: binding
Description: To study the impact of buffer ionic strength on the binding kinetics, the binding results in 1×PBS were compared with results measured in a more diluted buffer solution (40 times diluted 1×PBS) for the same experiments performed with ADRB2-B2 antagonist pair. The solid lines in FIG. 7 show the global fitting of the data with first-order kinetic model. […] Both of the GPCR binding pairs measured involve electrostatic interactions, since the reported binding site of GPR55 is hydrophilic, and ADRB2 is partially hydrophilic. Thus, the affinity measured under normal and diluted PBS are different. […] Due at least in part to the strong ionic screening effect in normal ionic strength buffer, the signal intensity is reduced to about half of the measurement in low ionic strength buffer while the noise remains at a similar level.
Target sequence in this assay (Q9Y2T6 whole entry, species assumed): as the sequence (Q9Y2T6 whole entry) above

For Tocrifluor, the “binding to empty virion K082” value [1] was “binds to neither”, the “association rate constant ka” value [2] was 9200 M⁻¹ s⁻¹ and the “dissociation rate constant kd” value [2] was 0.00081 s⁻¹. It also gave a Kd ([2]; read-out: equilibrium constant KD) of 89 nM and a Kd [3] of 160 ± 50 nM.
